pIC50: −log10 of the molar value. Some results are limits rather than exact numbers.

Our source for the IC50 values is patent US9580449B2, “Compositions and methods for the production of pyrimidine and pyridine compounds with BTK inhibitory activity” (Merck Patent GmbH, priority 2011, dated 2017).

This experiment deals with full-length human BTK (Homo sapiens (Human), UniProt Q06187). Put plainly: BTK IC50 enzyme assay (microfluidic off-chip mobility shift kinase assay). In kind it is biochemical. Conditions: incubated for 90 min. at 27 C; read-out: Time Dependent BTK Enzyme Assay IC50. The procedure: The following describes a microfluidic, off-chip mobility shift kinase assay used to measure inherent potency of compounds against BTK enzyme. Compounds described by embodiments of the present invention were assayed using this protocol and the data from the same is recorded in Table 2 within the column labeled: “Time Dependent BTK Enzyme Assay IC50”.
Chain of full-length human BTK (Q06187 whole entry): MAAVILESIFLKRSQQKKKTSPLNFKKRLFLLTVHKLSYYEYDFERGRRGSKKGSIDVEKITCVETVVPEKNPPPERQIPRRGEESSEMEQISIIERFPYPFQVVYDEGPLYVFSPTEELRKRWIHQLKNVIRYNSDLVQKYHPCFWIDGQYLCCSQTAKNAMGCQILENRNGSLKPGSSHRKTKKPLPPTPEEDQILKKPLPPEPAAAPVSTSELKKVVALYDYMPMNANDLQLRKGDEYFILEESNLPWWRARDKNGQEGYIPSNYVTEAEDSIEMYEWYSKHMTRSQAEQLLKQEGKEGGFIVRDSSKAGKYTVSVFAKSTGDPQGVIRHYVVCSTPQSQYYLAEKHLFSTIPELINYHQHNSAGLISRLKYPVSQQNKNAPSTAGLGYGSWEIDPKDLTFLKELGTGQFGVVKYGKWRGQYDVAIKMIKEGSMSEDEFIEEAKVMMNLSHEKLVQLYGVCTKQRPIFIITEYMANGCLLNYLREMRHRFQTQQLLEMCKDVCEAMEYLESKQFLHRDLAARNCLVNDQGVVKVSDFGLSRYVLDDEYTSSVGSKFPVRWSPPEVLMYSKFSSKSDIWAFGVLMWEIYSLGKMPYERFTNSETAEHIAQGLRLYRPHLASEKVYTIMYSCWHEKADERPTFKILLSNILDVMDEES
Stopped reactions were monitored at −2 PSI, −3000 V/−700 V in a LabChip 3000 plate reader from Caliper Life Sciences, a PerkinElmer Company (Hopkinton, Mass.), and the activity was measured by off-chip mobility shift assay measuring the charge/mass difference between substrate and product resulting from peptide phosphorylation. IC50 and efficacy were determined by plotting log [Inhibitor] vs. % Activity in GeneData Screener (Basel, Switzerland). […] I<1 uM and II>1 uM.
For `C#CC(=O)N1CC[C@@H](CNc2ncnc(N)c2-c2cnn(Cc3ccccc3)c2)[C@H](O)C1` [A110, 1-((3S,4S)-4-(((6-amino-5-(1-benzyl-1H-pyrazol-4-yl)pyrimidin-4-yl)amino)methyl)-3-hydroxypiperidin-1-yl)prop-2-yn-1-one], the pIC50 (in general, the negative decadic logarithm of the IC50, by convention in mol/L) was above 7.00. As for `C#CC(=O)N1CC2(CC(Nc3ncnc(N)c3-c3cnn(Cc4ccccc4)c3)C2)C1` [A111, 1-(6-((6-amino-5-(1-benzyl-1H-pyrazol-4-yl)pyrimidin-4-yl)amino)-2-azaspiro[3.3]heptan-2-yl)prop-2-yn-1-one], the pIC50 was above 7.00. `C#CC(=O)N1CC2(CC(Oc3ncnc(N)c3-c3cnn(Cc4ccccc4)c3)C2)C1` [A112, 1-(6-((6-amino-5-(1-benzyl-1H-pyrazol-4-yl)pyrimidin-4-yl)oxy)-2-azaspiro[3.3]heptan-2-yl)prop-2-yn-1-one]: the pIC50 was above 7.00. As for `C=CC(=O)NC1CC2(C1)CC(Nc1ncnc(N)c1-c1ccc(Oc3ccccc3)cc1)C2` (stereo not drawn) [A122, N-(6-((6-amino-5-(4-phenoxyphenyl)pyrimidin-4-v)amino)spiro[3.3]heptan-2-yl)acrylamide], the pIC50 was below 6.00. `C=CC(=O)N1CCC2(CCC2Nc2ncnc(N)c2-c2ccc(Oc3ccccc3)cc2)CC1` (stereo not drawn) [A123, 1-(1-((6-amino-5-(4-phenoxyphenyl)pyrimidin-4-yl)amino)-7-azaspiro[3.5]nonan-7-yl)prop-2-en-1-one]: the pIC50 was below 6.00. Next, `C=CC(=O)N1CCC(Nc2ncnc(N)c2-c2ccc(Oc3ccccc3)cc2)CC12CCC2` (stereo not drawn) [A125, 1-(8-((6-amino-5-(4-phenoxyphenyl)pyrimidin-4-yl)amino)-5-azaspiro[3.5]nonan-5-yl)prop-2-en-1-one]: below 6.00; `CC#CC(=O)c1cccc(CNc2ncnc(N)c2-c2ccc(Oc3ccccc3)cc2)c1` [A141, 1-(3-((6-Amino-5-(4-phenoxyphenyl)-pyrimidin-4-ylamino)-methyl)-phenyl)-but-2-yn-1-one]: above 6.00; `CC=CC(=O)c1cccc(CNc2ncnc(N)c2-c2ccc(Oc3ccccc3)cc2)c1` [A142, 1-(3-((6-Amino-5-(4-phenoxyphenyl)-pyrimidin-4-ylamino)-methyl)-phenyl)-but-2-en-1-one]: above 7.00. Next, `C=CC(=O)[C@H]1CCC[C@H](Nc2ncnc(N)c2-c2ccc(Oc3ccccc3)cc2)C1` [A143, 1-((1S,3S)-3-(6-Amino-5-(4-phenoxyphenyl)-pyrimidin-4-ylamino)-cyclohexyl)-propenone]: above 7.00. As for `CC=CC(=O)[C@H]1CCC[C@H](Nc2ncnc(N)c2-c2ccc(Oc3ccccc3)cc2)C1` [A144, 1-((1S,3S)-3-(6-Amino-5-(4-phenoxyphenyl)-pyrimidin-4-ylamino)-cyclohexyl)-but-2-en-1-one], the pIC50 is above 7.00. Under `CC#CC(=O)[C@H]1CCC[C@H](Nc2ncnc(N)c2-c2ccc(Oc3ccccc3)cc2)C1` [A145, 1-((1S,3S)-3-(6-Amino-5-(4-phenoxyphenyl)-pyrimidin-4-ylamino)-cyclohexyl)-but-2-yn-1-one] stands above 7.00. Under `CC=CC(=O)[C@H]1CCC[C@@H](Nc2ncnc(N)c2-c2ccc(Oc3ccccc3)cc2)C1` [A146, 1-((1S,3R)-3-(6-Amino-5-(4-phenoxyphenyl)-pyrimidin-4-ylamino)-cyclohexyl)-but-2-en-1-one] stands above 7.00. As for `CC#CC(=O)[C@H]1CCC[C@@H](Nc2ncnc(N)c2-c2ccc(Oc3ccccc3)cc2)C1` [A147, 1-((1S,3R)-3-(6-amino-5-(4-phenoxyphenyl)-pyrimidin-4-ylamino)-cyclohexyl)-but-2-yn-1-one], the pIC50 is above 7.00. For `C=CC(=O)Nc1cccc(Oc2ccnc(N)c2-c2ccc(OCc3ccccc3)cc2)c1` [A149, N-(3-((2-amino-3-(4-(benzyloxy)phenyl)pyridin-4-yl)oxy)phenyl)acrylamide], the pIC50 is above 6.00. In the case of `C=CC(=O)N1CCCC(Nc2nc(N)ncc2-c2ccc(Oc3ccccc3)cc2)C1` (stereo not drawn) [A150, 1-(3-((2-amino-5-(4-phenoxyphenyl)pyrimidin-4-yl)amino)piperidin-1-yl)prop-2-en-1-one], the pIC50 was above 6.00. Take `CN(C)C/C=C/C(=O)Nc1cccc(Oc2ccnc(N)c2-c2ccc(OCc3ccccc3)cc2)c1` [A152, (E)-N-(3-((2-amino-3-(4-(benzyloxy)phenyl)pyridin-4-yl)oxy)phenyl)-4-(dimethylamino)but-2-enamide]: the negative logarithm of the IC50 (pIC50) is above 6.00. For `CN(C)C/C=C/C(=O)N1CCC(CNc2ncnc(N)c2-c2ccc(Oc3ccccc3)cc2)CC1` [A153, (E)-1-(4-(((6-amino-5-(4-phenoxyphenyl)pyrimidin-4-yl)amino)methyl)piperidin-1-yl)-4-(dimethylamino)but-2-en-1-one], the pIC50 is above 6.00. In the case of `C=CC(=O)N[C@H]1CC[C@@H](Nc2ncnc(N)c2-c2ccc(OCc3ccccc3)cc2)CC1` [A154], the pIC50 was below 6.00.

`C=CC(=O)N1CCC(CNc2ncnc(N)c2-c2ccc(C(=O)Nc3ccccc3)cc2)C1` (stereo not drawn) [A155, 4-(4-(((1-acryloylpyrrolidin-3-yl)methyl)amino)-6-aminopyrimidin-5-yl)-N-phenylbenzamide]: the pIC50 was below 6.00. As for `C=CC(=O)N1CCC(CNc2ncnc(N)c2-c2ccc(OCc3ccccc3)cc2)C1` (stereo not drawn) [A156, 1-(3-(((6-amino-5-(4-(benzyloxy)phenyl)pyrimidin-4-yl)amino)methyl)pyrrolidin-1-yl)prop-2-en-1-one], the pIC50 was above 6.00. Under `C=CC(=O)N1CCC(CNc2ncnc(N)c2-c2ccc(C(=O)Nc3ccccc3)cc2)CC1` [A157, 4-(4-(((1-acryloylpiperidin-4-yl)methyl)amino)-6-aminopyrimidin-5-yl)-N-phenylbenzamide] stands below 6.00.

Turning to `C=CC(=O)Nc1ccc(F)c(Oc2ccnc(N)c2-c2ccc(Oc3ccccc3)cc2)c1` [A158, N-(3-((2-amino-3-(4-phenoxyphenyl)pyridin-4-yl)oxy)-4-fluorophenyl)acrylamide], the pIC50 was above 7.00. Next, `C=CC(=O)N[C@H]1CC[C@@H](Nc2ncnc(N)c2-c2ccc(C(=O)Nc3ccccc3)cc2)CC1` [A159, 4-(4-((cis-4-acrylamidocyclohexyl)amino)-6-aminopyrimidin-5-yl)-N-phenylbenzamide]: below 6.00; `CN(C)C/C=C/C(=O)N1CCCC(Nc2ncnc(N)c2-c2ccc(Oc3ccccc3)cc2)C1` (stereo not drawn) [A160, (E)-1-(3-((6-amino-5-(4-phenoxyphenyl)pyrimidin-4-yl)amino)piperidin-1-yl)-4-(dimethylamino)but-2-en-1-one]: above 6.00. Under `C=CC(=O)Nc1ccc(F)c(Oc2ncnc(N)c2-c2ccc(Oc3ccccc3)nc2)c1` [A161, N-(3-((6-amino-5-(6-phenoxypyridin-3-yl)pyrimidin-4-yl)oxy)-4-fluorophenyl)acrylamide] stands above 7.00; under `C=CC(=O)Nc1cccc(Oc2ncnc(N)c2-c2ccc(Oc3ccccn3)cc2)c1` [A162, N-(3-((6-amino-5-(4-(pyridin-2-yloxy)phenyl)pyrimidin-4-yl)oxy)phenyl)acrylamide], above 7.00; under `C=CC(=O)Nc1cccc(Oc2ncnc(N)c2-c2cccc(S(N)(=O)=O)c2)c1` [A163, N-(3-((6-amino-5-(3-sulfamoylphenyl)pyrimidin-4-yl)oxy)phenyl)acrylamide], below 6.00.
